# What was measured:
# Type in all cases: physicochemical
# [1] = Drying investigation of the two hydrates (vacuum oven, XRPD and TGA)
# Description: Procedure: MH1 and MH2 were placed in a vacuum oven at 50° C. and RT for 24 h. The samples were then analysed by TGA and XRPD immediately after removal and after 4 hours standing under ambient conditions.
# [2] = Compression studies
# [3] = Solubility assessment of MH1 in solvents (HPLC of liquors, XRPD of isolated solids); conditions: for solubility at 24 h: organic solvent or mixture, thermodynamic from solid
# Description: Procedure: Four solvents were chosen based on the competitive slurry experiments that favored MH1 as well as for diversity. Combinations of those solvents with water (aw=0.35) were also utilized to verify which hydrate is favored. Mixtures of the solvents with heptane (1:1) were used to check for crystal form with a good antisolvent.
# MH1 (22×104 mg) was suspended in various solvents (11×0.5 ml) and stirred at either 5 or 50° C. for 24 hours at 750 rpm. The solids were isolated by filtration and centrifugation and the liquors were analysed by HPLC to determine their solubility (relative to a standard made up). The solids were also investigated by XRPD. This procedure was also followed for an additional five solvent systems comprising different ratios of THF:heptane and IPA:heptane at either 5 or 50° C. The isolated solids were investigated by XRPD, HPLC and ^1HNMR.
# [4] = Gravimetric Vapour Sorption (GVS); conditions: 25° C., 0-90% RH
# Description: Sorption isotherms were obtained using a SMS DVS Intrinsic moisture sorption analyzer, controlled by DVS Intrinsic Control software. The sample temperature was maintained at 25° C. by the instrument controls. The humidity was controlled by mixing streams of dry and wet nitrogen, with a total flow rate of 200 ml/min. The relative humidity was measured by a calibrated Rotronic probe (dynamic range of 1.0-100% RH), located near the sample. The weight change, (mass relaxation) of the sample as a function of % RH was constantly monitored by a microbalance (accuracy ±0.005 mg).
# Typically, 5-30 mg of sample was placed in a tared mesh stainless steel basket under ambient conditions. The sample was loaded and unloaded at 40% RH and 25° C. (typical room conditions). A moisture sorption isotherm was performed as outlined below (2 scans per complete cycle). The standard isotherm was performed at 25° C. at 10% RH intervals over a 0-90% RH range. Typically, a double cycle (4 scans) was carried out. Data analysis was carried out within Microsoft Excel using the DVS Analysis Suite.
# The sample was recovered after completion of the isotherm and re-analyzed by XRPD.
# [5] = Solubility repeat at pH 1.2 (reverse addition); conditions: pH 1.2 buffered media, pH 1.2, simulated gastric fluid, thermodynamic from solid, pH maintained at 1.2, reverse addition
# Description: Procedure: pH 1.2 buffered media (0.4 ml) was added to two separate 7 ml vials. For each compound, material was added in portions to the pH 1.2 media. After each addition of compound, the vial was vortex mixed and the pH and appearance was recorded. The samples were adjusted to pH 1.2 with 1M HCl to within 0.05 of the desired pH unit. This was repeated until no further material was available (˜400 mg for each form, which would give a maximum concentration of around 1000 mg/ml if no adjustment was required).
# [6] = Stability studies with competitive slurries of the two hydrates; conditions: ambient conditions
# Description: Procedure: Saturated solutions of the supplied MH 1 (J08343) were prepared in different solvents/systems (1 ml). The saturated solutions were then filtered and used for competitive slurry experiments.
# MH1 and MH2 (ca. 15 mg each) were physically mixed before they were treated with the filtered saturated solutions (300 μL). The samples were stirred at 25° C. for 24 h then filtered, air dried and analysed by XRPD.
# The same solvents were used as for samples in water activity experiments with additional IPA/heptane mixtures as this is the current crystallisation solvent. This procedure was also followed for IPA/heptane at 5 and 50° C. (3 days slurrying).
# Further experiments were designed to increase the diversity of solvents/systems studied while still investigating the effect of water activity on the form obtained. This was with a view to define a solvent list for Phase 3 (Solvent Selection). Further saturated solutions were prepared as described in the procedure section using MH1 as supplied.
# [7] = Ethanol:Heptane 1:1, 5° C., 24 hours
# [8] = IPrOAc:0.5% water, 50° C., 24 hours
# [9] = IPrOAc:Heptane 1:1, 5° C., 24 hours
# [10] = IPrOAc:Heptane 1:1, 50° C., 24 hours
# [11] = THF:0.8% water, 5° C., 24 hours
# [12] = THF:Heptane 1:1, 5° C., 24 hours
# [13] = THF:Heptane 1:1, 50° C., 24 hours
smiles,measurement,setting,value
"C[C@@H]1CN(Cc2ncccn2)C[C@H]1c1cn2c(C3CCOCC3)ncc2c(=O)[nH]1 [MH1, 6-[(3S,4S)-4-methyl-1-(pyrimidin-2-ylmethyl)pyrrolidin-3-yl]-3-tetrahydropyran-4-yl-7H-imidazo[1,5-a]pyrazin-8-one]","XRPD (T = 0, 50° C.)","[1]; vacuum oven 50° C. 24 h, immediately after removal",Matches MH1 and AH
same,"TGA (T = 0, 50° C.)","[1]; vacuum oven 50° C. 24 h, immediately after removal, lost between 25 and 100° C.",0.3% w/w lost between
same,"TGA (T = 4 h, 50° C.)","[1]; vacuum oven 50° C. 24 h, then 4 hours ambient, lost between 25 and 100° C.",2.7% w/w lost between
same,"XRPD (T = 4 h, 50° C.)","[1]; vacuum oven 50° C. 24 h, then 4 hours at ambient conditions",Matches MH1
same,"XRPD (T = 0, RT)","[1]; vacuum oven RT 24 h, immediately after removal",Matches MH1 and AH
same,"TGA (T = 0, RT)","[1]; vacuum oven RT 24 h, immediately after removal, lost between 25 and 100° C.",0.3% w/w lost between
same,"TGA (T = 4 h, RT)","[1]; vacuum oven RT 24 h, then 4 hours ambient, lost between 25 and 100° C.",1.8% w/w lost between
same,"XRPD (T = 4 h, RT)","[1]; vacuum oven RT 24 h, then 4 hours at ambient conditions",Matches MH1
same,"Compression studies, form by XRPD",[2],no conversion to the anhydrate
same,Solubility,"[3]; Ethanol, 5° C., 24 hours",>200 mg/mL
same,Solubility,"[3]; Ethanol, 50° C., 24 hours",>200 mg/mL
same,Solubility,"[3]; Ethanol:4.2% water, 5° C., 24 hours",>200 mg/mL
same,XRPD (isolated solid),[3]; [7],MH1 + AH
same,XRPD (isolated solid),"[3]; Heptane, 5° C., 24 hours",MH1
same,XRPD (isolated solid),"[3]; Heptane, 50° C., 24 hours",MH1 + AH
same,XRPD (isolated solid),"[3]; IPA, 5° C., 24 hours",MH1 + AH
same,Solubility,"[3]; IPA, 50° C., 24 hours",>200 mg/mL
same,XRPD (isolated solid),"[3]; IPA:Heptane 1:1, 5° C.",MH1
same,XRPD (isolated solid),"[3]; IPA:Heptane 1:2, 5° C.",MH1
same,XRPD (isolated solid),"[3]; IPA:Heptane 1:2, 50° C.",MH1
same,XRPD (isolated solid),"[3]; IPA:Heptane 1:3, 5° C.",MH1
same,XRPD (isolated solid),"[3]; IPA:Heptane 1:3, 50° C.",MH1
same,solubility at 24 h,"[3]; IPrOAc with 0.5% water, IPrOAc:0.5% water, 5° C., 24 hours",3.8 mg/mL
same,XRPD (isolated solid),"[3]; IPrOAc, 5° C., 24 hours",MH1
same,XRPD (isolated solid),"[3]; IPrOAc, 50° C., 24 hours",MH1 + AH
same,XRPD (isolated solid),"[3]; IPrOAc:0.5% water, 5° C., 24 hours",MH2
same,XRPD (isolated solid),[3]; [8],MH1
same,XRPD (isolated solid),[3]; [9],MH1
same,XRPD (isolated solid),[3]; [10],MH1
same,XRPD (isolated solid),"[3]; THF, 5° C., 24 hours",MH2 + New peaks
same,Solubility,"[3]; THF, 50° C., 24 hours",>200 mg/mL
same,XRPD (isolated solid),[3]; [11],MH2
same,XRPD (isolated solid),[3]; [12],MH1
same,XRPD (isolated solid),[3]; [13],MH1
same,XRPD (isolated solid),"[3]; THF:Heptane 1:2, 5° C.",MH1
same,XRPD (isolated solid),"[3]; THF:Heptane 1:2, 50° C.",MH1
same,XRPD (isolated solid),"[3]; THF:Heptane 2:1, 5° C.",MH2
same,XRPD (isolated solid),"[3]; THF:Heptane 2:1, 50° C.",MH1
same,solubility at 24 h,"[3]; ethanol with 4.2% water, Ethanol:4.2% water, 5° C., 24 hours",> 200 mg/mL
same,solubility at 24 h,"[3]; Ethanol, 5° C., 24 hours",> 200 mg/mL
same,solubility at 24 h,"[3]; Ethanol, 50° C., 24 hours",> 200 mg/mL
same,solubility at 24 h,"[3]; Ethanol:4.2% water, 50° C., 24 hours",> 200 mg/mL
same,solubility at 24 h,[3]; [7],170 mg/mL
same,solubility at 24 h,"[3]; Ethanol:Heptane 1:1, 50° C., 24 hours",> 200 mg/mL
same,solubility at 24 h,"[3]; IPA, 5° C., 24 hours",130 mg/mL
same,solubility at 24 h,"[3]; IPA, 50° C., 24 hours",> 200 mg/mL
same,solubility at 24 h,"[3]; IPA:Heptane 1:1, 5° C.",40 mg/mL
same,solubility at 24 h,"[3]; IPA:Heptane 1:1, 50° C.",> 200 mg/mL
same,solubility at 24 h,"[3]; IPA:Heptane 1:2, 5° C.",14 mg/mL
same,solubility at 24 h,"[3]; IPA:Heptane 1:2, 50° C.",19 mg/mL
same,solubility at 24 h,"[3]; IPA:Heptane 1:3, 5° C.",8 mg/mL
same,solubility at 24 h,"[3]; IPA:Heptane 1:3, 50° C.",10 mg/mL
same,solubility at 24 h,"[3]; IPrOAc, 5° C., 24 hours",11 mg/mL
same,solubility at 24 h,"[3]; IPrOAc, 50° C., 24 hours",6.3 mg/mL
same,solubility at 24 h,[3]; [8],5.6 mg/mL
same,solubility at 24 h,[3]; [9],1.9 mg/mL
same,solubility at 24 h,[3]; [10],2.1 mg/mL
same,solubility at 24 h,"[3]; THF, 5° C., 24 hours",79 mg/mL
same,solubility at 24 h,"[3]; THF, 50° C., 24 hours",> 200 mg/mL
same,solubility at 24 h,[3]; [11],76 mg/mL
same,solubility at 24 h,"[3]; THF:0.8% water, 50° C., 24 hours",> 200 mg/mL
same,solubility at 24 h,[3]; [12],6.3 mg/mL
same,solubility at 24 h,[3]; [13],11 mg/mL
same,solubility at 24 h,"[3]; THF:Heptane 1:2, 5° C.",0.33 mg/mL
same,solubility at 24 h,"[3]; THF:Heptane 1:2, 50° C.",0.62 mg/mL
same,solubility at 24 h,"[3]; THF:Heptane 2:1, 5° C.",17 mg/mL
same,solubility at 24 h,"[3]; THF:Heptane 2:1, 50° C.",21 mg/mL
same,GVS Max uptake,[4],"Max uptake of 4.7%, no hysteresis, large step"
same,Solubility,[5],> 153 mg/mL
same,Relative stability of the forms,[6],most stable form at ambient conditions

# From patent publication US12466832B2, “Monohydrate and crystalline forms of 6-[(3S,4S)-4-methyl-1-(pyrimidin-2-ylmethyl)pyrrolidin-3-yl]-3-tetrahydropyran-4-yl-7H-imidazo[1,5-a]pyrazin-8-one” (Cardurion Pharmaceuticals, Inc., priority 2018, dated 2025)
